Test results as given in paper PMC7760626, “Screening of Human CYP1A2 and CYP3A4 Inhibitors from Seaweed In Silico and In Vitro” (Marine Drugs, 2020).
Several values for one entry are separate records, joined by “and”; a condition that tells them apart may be missing. Equal entries are not always repeated. Where two headings read alike, the source gives them in different places. Each block holds one molecule with its values, some of them ahead of it.

Legend:
CYP1A2 [1] = biological target: T1, CYP1A2 (Homo sapiens, UniProt P05177); assay: Vivid CYP1A2 blue screening kit inhibition assay; details: 3.125–200 μM; for effect on CYP1A2 activity (in words): in vitro
T1 sequence (P05177 1-516): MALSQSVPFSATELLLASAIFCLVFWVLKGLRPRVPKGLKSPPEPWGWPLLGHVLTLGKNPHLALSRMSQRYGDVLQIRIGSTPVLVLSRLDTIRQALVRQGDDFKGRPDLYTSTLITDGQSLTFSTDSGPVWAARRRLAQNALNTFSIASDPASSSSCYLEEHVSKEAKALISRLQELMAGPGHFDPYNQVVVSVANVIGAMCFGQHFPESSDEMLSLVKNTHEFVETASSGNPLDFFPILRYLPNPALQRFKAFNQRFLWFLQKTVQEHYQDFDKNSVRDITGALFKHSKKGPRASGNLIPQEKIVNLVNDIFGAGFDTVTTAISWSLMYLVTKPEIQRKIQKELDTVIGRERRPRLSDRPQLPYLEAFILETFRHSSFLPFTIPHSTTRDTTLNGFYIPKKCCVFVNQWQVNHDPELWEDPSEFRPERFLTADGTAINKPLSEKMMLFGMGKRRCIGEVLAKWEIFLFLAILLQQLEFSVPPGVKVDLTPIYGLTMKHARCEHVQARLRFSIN
Protocol: (§1) Human CYP1A2 and CYP3A4 activities were determined using the Vivid™ CYP1A2 blue screening kit and Vivid™ CYP3A4 red screening kit according to the manufacturer’s instructions. For the CYP1A2 and CYP3A4 inhibition assay, different concentrations (3.125–200 μM) of test compounds or inhibitors were mixed with a master pre-mix comprising of CYP450 BACULOSOMES® reagent and regeneration system which contained glucose-6-phosphate and glucose-6-phosphate dehydrogenase. The mixture was incubated at room temperature for 10 min. Following incubation, each CYP enzyme-specific substrate (Vivid EOMCC for CYP1A2 and Vivid BOMR for CYP3A4) and NADP^+ were added to start the reaction. The plate was immediately transferred into the fluorescent plate reader and read in 1 min intervals for 60 min at Ex 415 nm/Em 460 nm (CYP1A2) and Ex 550 nm/Em 590 nm (CYP3A4), respectively. […] The plots were made with Graph-Pad Prism software (Graph-Pad, San Diego, CA, USA).

human recombinant CYP3A4 = human recombinant CYP3A4 (Homo sapiens, UniProt P08684); assay: Vivid CYP3A4 red screening kit inhibition assay
Protocol: as §1

CYP1A1 [2] = details: read-out: IC50 CYP1A1 enzyme activity; cited from earlier work
CYP1A2 [3] = details: read-out: IC50 CYP1A2 enzyme activity; cited from earlier work
CYP3A4 [4] = details: read-out: IC50 CYP3A4 enzyme activity; cited from earlier work
CYP1A1 [5] = tested on: CYP1A1; set-up: method as in PMID 31655123; details: cited from earlier work
CYP1A2 [6] = details: cited from earlier work
CYP2E1 = details: cited from earlier work
CYP2D6 = details: cited from earlier work
CYP2C19 = details: cited from earlier work
CYP3A4 [7] = details: cited from earlier work
[8] = CYP1A2 In Vitro IC50, CYP1A2 BACULOSOMES, substrate Vivid EOMCC, n.i. = no inhibition

Chain of human recombinant CYP3A4 (P08684 whole entry): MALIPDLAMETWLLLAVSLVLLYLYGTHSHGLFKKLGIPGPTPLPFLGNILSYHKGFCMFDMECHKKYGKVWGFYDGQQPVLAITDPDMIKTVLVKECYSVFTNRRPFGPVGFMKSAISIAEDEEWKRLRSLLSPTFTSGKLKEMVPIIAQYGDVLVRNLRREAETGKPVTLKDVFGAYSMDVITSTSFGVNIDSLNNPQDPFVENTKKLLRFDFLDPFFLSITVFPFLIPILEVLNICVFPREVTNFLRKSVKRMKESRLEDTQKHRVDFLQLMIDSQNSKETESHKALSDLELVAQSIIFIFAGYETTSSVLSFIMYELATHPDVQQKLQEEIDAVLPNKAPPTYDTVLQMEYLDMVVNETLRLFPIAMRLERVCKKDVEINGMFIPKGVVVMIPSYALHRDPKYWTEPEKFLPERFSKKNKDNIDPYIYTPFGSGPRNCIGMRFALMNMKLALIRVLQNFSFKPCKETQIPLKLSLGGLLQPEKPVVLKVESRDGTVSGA

- IC50 (CYP1A2 [1]; [8]): 30.3 µM
- IC50 at 60 min (CYP1A2 [1]; human, recombinant human CYP1A2 (CYP450 BACULOSOMES reagent), probe Vivid EOMCC, CYP1A2 In Vitro IC50, CYP1A2 BACULOSOMES, substrate Vivid EOMCC, n.i. = no inhibition): 30.2 µM
- IC50 (human recombinant CYP3A4; CYP3A4 In Vitro IC50, CYP3A4 BACULOSOMES, substrate Vivid BOMR, 3.125–200 μM, n.i. = no inhibition): 24.4 µM
SMILES: CC(=O)O[C@H]1CC(C)(C)C(=C=C/C(C)=C/C=C/C(C)=C/C=C/C=C(C)/C=C/C=C(\C)C(=O)C[C@@]23O[C@]2(C)C[C@@H](O)CC3(C)C)[C@](C)(O)C1 [Fucoxanthin, fucoxanthin]
- IC50 (CYP1A1 [2]): 12.5 µM
- IC50 (CYP1A2 [3]): 49 µM
- IC50 (CYP3A4 [4]): 11 µM

- IC50 (CYP1A2 [1]; [8]): 41.8 µM and 41.9 µM
SMILES: O=c1c(O)c(-c2ccc(O)cc2O)oc2cc(O)cc(O)c12 [Morin, morin hydrate]
- IC50 (CYP1A1 [5]): 126 µM

SMILES: O=c1c(O)c(-c2ccc(O)c(O)c2)oc2cc(O)cc(O)c12 [Quercetin, quercetin]
- effect on CYP1A2 (in words) (CYP1A2 [6]): did not show any significant effect
- effect on CYP2E1 (in words) (CYP2E1): did not show any significant effect
- inhibitory effect against CYP2D6 (in words) (CYP2D6): strong inhibitory effect
- inhibitory effect against CYP2C19 (in words) (CYP2C19): moderate effect
- inhibitory effect against CYP3A4 (in words) (CYP3A4 [7]): moderate effect

SMILES: COc1ccc([C@@H]2CC(=O)c3c(O)cc(O[C@@H]4O[C@H](CO[C@@H]5O[C@@H](C)[C@H](O)[C@@H](O)[C@H]5O)[C@@H](O)[C@H](O)[C@H]4O)cc3O2)cc1O [Hesperidin, hesperidin]
- effect on CYP1A2 activity (in words) (CYP1A2 [1]): did not show any significant effect
- effect on CYP1A2 activity (in words) (CYP1A2 [1]; listed as HSP): no significant inhibitory effect
- effect on CYP3A4 activity (in words) (human recombinant CYP3A4; in vitro, at high concentrations): slightly inhibited
